Experimental data taken from patent US6720339B2, “Certain fused pyrrolecarboxamides; a new class of GABA brain receptor ligands” (Neurogen Corporation, priority 1996, dated 2004).

Molecular target: GABAa receptor (benzodiazepine receptor)
Assay: GABAa receptor binding assay (3H-RO15-1788 [3H-Flumazenil] displacement, rat cortical tissue homogenate)
Conditions: radioligand 0.5 nM 3H-RO15-1788 (3H-Flumazenil), 30 min at 4° C.
Experimental: The pharmaceutical utility of compounds of this invention are indicated by the following assay for GABAa receptor binding activity.
Assays are carried out as described in Thomas and Tallman (J. Bio. Chem. 156: 9838-9842, J. Neurosci. 3: 433-440, 1983). Rat cortical tissue is dissected and homogenized in 25 volumes (w/v) of 0.05 M Tris HCl buffer (pH 7.4 at 4° C.). The tissue homogenate is centrifuged in cold (4° C.) at 20,000×g for 20′. The supernatant is decanted and the pellet is rehomogenized in the same volume of buffer and again centrifuged at 20,000×g. The supernantant is decanted and the pellet is frozen at −20° C. overnight. The pellet is then thawed and rehomogenized in 25 volume (orginal wt/vol) of buffer and the procedure is carried out twice. The pellet is finally resuspended in 50 volumes (w/vol of 0.05 M Tris HCl buffer (pH 7.4 at […]).
Incubations contain […] of tissue homogenate, […] of radioligand 0.5 nM (^3H-RO15-1788 [^3H-Flumazenil] specific activity 80 Ci/mmol), drug or blocker and buffer to a total volume of […]. Incubations are carried for 30 min at 4° C. then are rapidly filtered through GFB filters to separate free and bound ligand. Filters are washed twice with fresh 0.05 M Tris HCl buffer (pH 7.4 at 4° C.) and counted in a liquid scintillation counter. 1.0 mM diazepam is added to some tubes to determine nonspecific binding. Data are collected in triplicate determinations, averaged and % inhabition of total specific binding is calculated. Total Specific Binding=Total−Nonspecific. In some cases, the amounts of unlabeled drugs is varied and total displacement curves of binding are carried out.

Row | SMILES | Ki [nM]
1 | CC1CC(=O)c2c(C(=O)Nc3ccccc3F)c[nH]c2C1 (stereo not shown) [Compound 5, N-(2-Fluorophenyl)-4-oxo-6-methyl-4,5,6,7-tetrahydro-1H-indole-3-carboxamide] | 0.5
2 | COc1ccc(NC(=O)c2c[nH]c3c2C(=O)CC(C)C3)c(F)c1 (stereo not shown) [Compound 6, N-(2-Fluoro-4-methoxyphenyl)-4-oxo-6-methyl-4,5,6,7-tetrahydro-1H-indole-3-carboxamide] | 1
3 | CC1CC(=O)c2c(C(=O)Nc3ccc4cccnc4n3)c[nH]c2C1 (stereo not shown) [Compound 9, N-(1,8-Napthyridin-2-yl)-4-oxo-6-methyl-4,5,6,7-tetahydro-1H-indole-3-carboxamide] | 4
4 | CC1CC(=O)c2c(C(=O)Nc3ccc4ccccc4n3)c[nH]c2C1 (stereo not shown) [Compound 10, N-(2-Quinolinyl)-4-oxo-6-methyl-4,5,6,7-tetrahydro-1H-indole-3-carboxamide] | 12

More lines, now with the values ahead:

Row | Ki [nM] | SMILES
5 | 21 | CC1(C)CC(=O)c2c(C(=O)Nc3ccccc3)c[nH]c2C1 [Compound 1, N-Phenyl-4-oxo-6,6-dimethyl-4,5,6,7-tetrahydro-1H-indole-3-carboxamide]
6 | 12 | CC1(C)CC(=O)c2c(C(=O)Nc3ccccc3F)c[nH]c2C1 [Compound 2]
7 | 13 | COc1ccc(NC(=O)c2c[nH]c3c2C(=O)CC(C)(C)C3)cc1 [Compound 3, N-(4-Methoxyphenyl)-4-oxo-6,6-dimethyl-4,5,6,7-tetrahydro-1H-indole-3-carboxamide]
8 | 1 | CC1CC(=O)c2c(C(=O)Nc3ccccc3)c[nH]c2C1 (stereo not shown) [Compound 4, N-Phenyl-4-oxo-6-methyl-4,5,6,7-tetraydro-1H-indole-3-carboxamide]
9 | 10 | CC1(C)CC(=O)c2c(C(=O)Nc3ccsc3)c[nH]c2C1 [Compound 7, N-(3-Thienyl)-4-oxo-6,6-dimethyl-4,5,6,7-tetrahydro-1H-indole-3-caboxamide]
10 | 80 | CC1(C)CC(=O)c2c(C(=O)Nc3ccc4cccnc4n3)c[nH]c2C1 [Compound 8, N-(1,8-Napthyridin-2yl)-4-oxo-6,6-dimethyl-4,5,6,7-tetrahydro-1H-indole-3-carboxamide]

Test system: not given
Assay: not given
Conditions: not given

Row | SMILES | melting point [°C]
11 | CC1CC(=O)c2c(C(=O)Nc3ccccc3F)c[nH]c2C1 (stereo not shown) [Compound 5, N-(2-Fluorophenyl)-4-oxo-6-methyl-4,5,6,7-tetrahydro-1H-indole-3-carboxamide] | 264 to 265
12 | COc1ccc(NC(=O)c2c[nH]c3c2C(=O)CC(C)C3)c(F)c1 (stereo not shown) [Compound 6, N-(2-Fluoro-4-methoxyphenyl)-4-oxo-6-methyl-4,5,6,7-tetrahydro-1H-indole-3-carboxamide] | 217 to 219
13 | CC1CC(=O)c2c(C(=O)Nc3ccc4ccccc4n3)c[nH]c2C1 (stereo not shown) [Compound 10, N-(2-Quinolinyl)-4-oxo-6-methyl-4,5,6,7-tetrahydro-1H-indole-3-carboxamide] | 273 to 275
14 | CCOc1ccc(NC(=O)c2c[nH]c3c2C(=O)CC(C)C3)c(F)c1 (stereo not shown) [Example 3(bb), N-(2-Fluoro-4-ethoxyphenyl)-4-oxo-6-methyl-4,5,6,7-tetrahydro-1H-indole-3-carboxamide] | 224 to 225
15 | CC1CC(=O)c2c(C(=O)Nc3ccc(O)c(O)c3)c[nH]c2C1 (stereo not shown) [Example 3(cc), N-(3,4-Dihydroxyphenyl)-4-oxo-6-methyl-4,5,6,7-tetrahydro-1H-indole-3-carboxamide] | 267 to 269
16 | Cc1ccc(NC(=O)c2c[nH]c3c2C(=O)CC(C)C3)c(O)c1 (stereo not shown) [Example 3(dd), N-(2-Hydroxy-4-methylphenyl)-4-oxo-6-methyl-4,5,6,7-tetrahydro-1H-indole-3-carboxamide] | 258 to 260
17 | COc1ccncc1NC(=O)c1c[nH]c2c1C(=O)CC(C)(C)C2 [Example 3(ii), N-(4-Methoxy-3-pyridyl)-4-oxo-6,6-dimethyl-4,5,6,7-tetrahydro-1H-indole-3-carboxamide] | 217 to 218
18 | CC1CC(=O)c2c(C(=O)Nc3cccnc3)c[nH]c2C1 (stereo not shown) [Example 3(ll), N-(3-Pyridyl)-4-oxo-6-methyl-4,5,6,7-tetrahydro-1H-indole-3-carboxamide] | 225 to 227
19 | CC1CC(=O)c2c(C(=O)Nc3ccncc3)c[nH]c2C1 (stereo not shown) [Example 3(mm), N-(4-Pyridyl)-4-oxo-6-methyl-4,5,6,7-tetrahydro-1H-indole-3-carboxamide] | 280 to 290
20 | CC1CC(=O)c2c(C(=O)Nc3cccc(F)c3)c[nH]c2C1 (stereo not shown) [Example 3(s), N-(3-Fluorophenyl)-4-oxo-6-methyl-4,5,6,7-tetrahydro-1H-indole-3-carboxamide] | 302 to 303
21 | CC1CC(=O)c2c(C(=O)Nc3ccc(F)cc3)c[nH]c2C1 (stereo not shown) [Example 3(t), N-(4-Fluorophenyl)-4-oxo-6-methyl-4,5,6,7-tetrahydro-1H-indole-3-carboxamide] | 262 to 264
22 | COc1cccc(NC(=O)c2c[nH]c3c2C(=O)CC(C)C3)c1 (stereo not shown) [Example 3(u), N-(3-Methoxyphenyl)-4-oxo-6-methyl-4,5,6,7-tetrahydro-1H-indole-3-carboxamide] | 234 to 235
23 | CC1CC(=O)c2c(C(=O)Nc3ccc(O)cc3)c[nH]c2C1 (stereo not shown) [Example 3(v), N-(4-Hydroxyphenyl)-4oxo-6-methyl-4,5,6,7-tetrahydro-1H-indole-3-carboxamide] | 320
24 | COc1ccc(NC(=O)c2c[nH]c3c2C(=O)CC(C)C3)c(O)c1 (stereo not shown) [Example 3(x), N-(2-Hydroxy-4-methoxyphenyl)-4-oxo-6methyl-4,5,6,7-tetrahydro-1H-indole-3-carboxamide] | 236 to 238
25 | COc1ccc(NC(=O)c2c[nH]c3c2C(=O)CC(C)C3)cc1 (stereo not shown) [Example 3(y), N-(4-Methoxyphenyl)-4-oxo-6-methyl-4,5,6,7-tetrahydro-1H-indole-3-carboxamide] | 260 to 261

Results, then the compound that gave them:

Row | melting point [°C] | SMILES
26 | 278 to 279 | CC1CC(=O)c2c(C(=O)Nc3ccccc3)c[nH]c2C1 (stereo not shown) [Compound 4, N-Phenyl-4-oxo-6-methyl-4,5,6,7-tetraydro-1H-indole-3-carboxamide]
27 | 389 to 390 | CC1(C)CC(=O)c2c(C(=O)Nc3ccc4cccnc4n3)c[nH]c2C1 [Compound 8, N-(1,8-Napthyridin-2yl)-4-oxo-6,6-dimethyl-4,5,6,7-tetrahydro-1H-indole-3-carboxamide]
28 | 259 to 261 | CC1(C)CC(=O)c2c(C(=O)Nc3cccc(F)c3)c[nH]c2C1 [Example 3(b), N-(3-Fluorophenyl)-4-oxo-6,6-dimethyl-4,5,6,7-tetrahydro-1H-indole-3-carboxamide]
29 | 268 to 270 | CC1(C)CC(=O)c2c(C(=O)Nc3ccc(F)cc3)c[nH]c2C1 [Example 3(c), N-(4-Fluorophenyl)-4-oxo-6,6-dimethyl-4,5,6,7-tetrahydro-1H-indole-3-carboxamide]
30 | 190 to 192 | COc1ccc(NC(=O)c2c[nH]c3c2C(=O)CC(C)(C)C3)c(O)c1 [Example 3(g), N-(2-Hydroxy-4-methoxyphenyl)-4-oxo-6,6-dimethyl-4,5,6,7-tetrahydro-1H-indole-3-carboxamide]
31 | 282 to 284 | COc1ccc(NC(=O)c2c[nH]c3c2C(=O)CC(C)(C)C3)cc1O [Example 3(h), N-(3-Hydroxy-4-methoxyphenyl)-4-oxo-6,6-dimethyl-4,5,6,7-tetrahydro-1H-indole-3-carboxamide]
32 | 237 to 239 | CC1(C)CC(=O)c2c(C(=O)Nc3cccnc3)c[nH]c2C1 [Example 3(hh), N-(3-Pyridyl)-4-oxo-6,6-dimethyl-4,5,6,7-tetrahydro-1H-indole-3-carboxamide]
33 | 213 to 215 | COc1ccc(NC(=O)c2c[nH]c3c2C(=O)CC(C)(C)C3)c(F)c1 [Example 3(i), N-(2-Fluoro-4-methoxyphenyl)-4-oxo-6,6-dimethyl-4,5,6,7-tetrahydro-1H-indole-3-carboxamide]
34 | 225 to 227 | CC1(C)CC(=O)c2c(C(=O)Nc3ccc(O)cc3F)c[nH]c2C1 [Example 3(l), N-(2-Fluoro-4-hydroxyphenyl)-4-oxo-6,6-dimethyl-4,5,6,7-tetrahydro-1H-indole-3-carboxamide]
